Assay results as given in ChEMBL document CHEMBL1201862, “PubChem BioAssay data set” (2004).
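Five concentrations, 48 hours, 96-well plates. GI50: concentration for 50% inhibition of growth.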 The source made the active and inactive calls. Rule as the data show it: active = GI50 up to about 1.1 µM and inactive = higher.

How the values were obtained:
Test in all cases: NCI tumour cell line growth inhibition, 48 h
SF-268 = tested on: SF-268
IGROV-1 = tested on: IGROV-1
HOP-62 = tested on: HOP-62
A498 = tested on: A498
NCI-H226 = tested on: NCI-H226
CCRF-CEM = tested on: CCRF-CEM
SNB-75 = tested on: SNB-75
HCC 2998 = tested on: HCC 2998
SR = tested on: SR
LOX IMVI = tested on: LOX IMVI
RXF 393 = tested on: RXF 393
COLO 205 = tested on: COLO 205
T47D = tested on: T47D
BT-549 = tested on: BT-549
HOP-92 = tested on: HOP-92
A549 = tested on: A549
TK-10 = tested on: TK-10
OVCAR-5 = tested on: OVCAR-5
NCI-H460 = tested on: NCI-H460

SMILES: NC1CC(=O)c2c(I)sc(I)c21 (stereo not drawn)
- GI50 (SF-268): 21 µM (inactive)
- GI50 (IGROV-1): 15.2 µM (inactive)
- GI50 (HOP-62): 19.1 µM (inactive)
- GI50 (A498): 20 µM (inactive)
- GI50 (NCI-H226): 19.1 µM (inactive)
- GI50 (CCRF-CEM): 3.27 µM (inactive)
- GI50 (SNB-75): 20.6 µM (inactive)
- GI50 (HCC 2998): 22 µM (inactive)
- GI50 (SR): 13.4 µM (inactive)
- GI50 (LOX IMVI): 13.3 µM (inactive)
- GI50 (RXF 393): 21.4 µM (inactive)
- GI50 (COLO 205): 14.9 µM (inactive)
- GI50 (T47D): 46.2 µM (inactive)
- GI50 (BT-549): 18.4 µM (inactive)
- GI50 (HOP-92): 22.8 µM (inactive)
- GI50 (A549): 29.8 µM (inactive)
- GI50 (TK-10): 19 µM (inactive)
- GI50 (OVCAR-5): 24.1 µM (inactive)
- GI50 (NCI-H460): 17.7 µM (inactive)

SMILES: Cc1cc2c(c(=O)n1C)SCC2
- GI50 (SF-268): > 100 µM (inactive)
- GI50 (IGROV-1): > 100 µM (inactive)
- GI50 (HOP-62): > 100 µM (inactive)
- GI50 (A498): > 100 µM (inactive)
- GI50 (NCI-H226): > 100 µM (inactive)
- GI50 (CCRF-CEM): > 100 µM (inactive)
- GI50 (SNB-75): > 100 µM (inactive)
- GI50 (HCC 2998): > 100 µM (inactive)
- GI50 (SR): > 100 µM (inactive)
- GI50 (LOX IMVI): > 100 µM (inactive)
- GI50 (RXF 393): > 100 µM (inactive)
- GI50 (COLO 205): > 100 µM (inactive)
- GI50 (T47D): > 100 µM (inactive)
- GI50 (BT-549): > 100 µM (inactive)
- GI50 (HOP-92): > 100 µM (inactive)
- GI50 (A549): > 100 µM (inactive)
- GI50 (TK-10): > 100 µM (inactive)
- GI50 (OVCAR-5): > 100 µM (inactive)
- GI50 (NCI-H460): > 100 µM (inactive)

SMILES: CN(C)c1ccc(/C=c2\c3cc([N+](=O)[O-])ccc3n3c2cc(-c2ccccc2)[n+]3C)cc1
- GI50 (SF-268): 0.923 µM (active)
- GI50 (IGROV-1): 0.964 µM (active)
- GI50 (HOP-62): 2.04 µM (inactive)
- GI50 (A498): 2.28 µM (inactive)
- GI50 (NCI-H226): 2.75 µM (inactive)
- GI50 (CCRF-CEM): 0.601 µM (active)
- GI50 (SNB-75): 1.07 µM (active)
- GI50 (HCC 2998): 2.28 µM (inactive)
- GI50 (SR): 0.29 µM (active)
- GI50 (LOX IMVI): 1.57 µM (inactive)
- GI50 (RXF 393): 1.06 µM (active)
- GI50 (COLO 205): 0.297 µM (active)
- GI50 (T47D): 0.458 µM (active)
- GI50 (BT-549): 1.23 µM (inactive)
- GI50 (HOP-92): 1.18 µM (inactive)
- GI50 (A549): 2.94 µM (inactive)
- GI50 (TK-10): 2.64 µM (inactive)
- GI50 (OVCAR-5): 3.63 µM (inactive)
- GI50 (NCI-H460): 3.13 µM (inactive)

SMILES: Nc1nc(=O)n(C2CC(O)C(CO)O2)c2nc(-c3ccc(-c4ccccc4)cc3)cnc12 (stereo not drawn)
- GI50 (SF-268): 30.7 µM (inactive)
- GI50 (IGROV-1): > 100 µM (inactive)
- GI50 (HOP-62): 27.2 µM (inactive)
- GI50 (A498): > 100 µM (inactive)
- GI50 (NCI-H226): 25.6 µM (inactive)
- GI50 (CCRF-CEM): 27.6 µM (inactive)
- GI50 (SNB-75): 23 µM (inactive)
- GI50 (HCC 2998): 41.9 µM (inactive)
- GI50 (SR): 27.7 µM (inactive)
- GI50 (LOX IMVI): 38.8 µM (inactive)
- GI50 (RXF 393): 31.2 µM (inactive)
- GI50 (COLO 205): > 100 µM (inactive)
- GI50 (T47D): 18.6 µM (inactive)
- GI50 (BT-549): > 100 µM (inactive)
- GI50 (HOP-92): 56.2 µM (inactive)
- GI50 (A549): > 100 µM (inactive)
- GI50 (TK-10): > 100 µM (inactive)
- GI50 (OVCAR-5): > 100 µM (inactive)
- GI50 (NCI-H460): > 100 µM (inactive)

SMILES: N#CC(c1ccccc1)N1CCCN(C(C#N)c2ccccc2)C1c1ccccc1O (stereo not drawn)
- GI50 (SF-268): > 100 µM (inactive)
- GI50 (IGROV-1): > 100 µM (inactive)
- GI50 (HOP-62): > 100 µM (inactive)
- GI50 (A498): > 100 µM (inactive)
- GI50 (NCI-H226): > 100 µM (inactive)
- GI50 (CCRF-CEM): 40.1 µM (inactive)
- GI50 (SNB-75): > 100 µM (inactive)
- GI50 (HCC 2998): > 100 µM (inactive)
- GI50 (SR): > 100 µM (inactive)
- GI50 (LOX IMVI): > 100 µM (inactive)
- GI50 (RXF 393): > 100 µM (inactive)
- GI50 (COLO 205): > 100 µM (inactive)
- GI50 (T47D): > 100 µM (inactive)
- GI50 (BT-549): > 100 µM (inactive)
- GI50 (HOP-92): 22.7 µM (inactive)
- GI50 (A549): > 100 µM (inactive)
- GI50 (TK-10): > 100 µM (inactive)
- GI50 (OVCAR-5): > 100 µM (inactive)
- GI50 (NCI-H460): > 100 µM (inactive)

SMILES: Clc1ccc(C2C3COc4ccccc4C3=NN2c2ccccc2)cc1 (stereo not drawn)
- GI50 (SF-268): 44.7 µM (inactive)
- GI50 (IGROV-1): > 69 µM (inactive)
- GI50 (HOP-62): > 100 µM (inactive)
- GI50 (A498): > 100 µM (inactive)
- GI50 (NCI-H226): 30 µM (inactive)
- GI50 (CCRF-CEM): 2.38 µM (inactive)
- GI50 (SNB-75): > 70.3 µM (inactive)
- GI50 (HCC 2998): > 100 µM (inactive)
- GI50 (SR): 0.198 µM (active)
- GI50 (LOX IMVI): 7.19 µM (inactive)
- GI50 (RXF 393): 95.5 µM (inactive)
- GI50 (COLO 205): > 100 µM (inactive)
- GI50 (T47D): > 69.7 µM (inactive)
- GI50 (BT-549): 68.5 µM (inactive)
- GI50 (HOP-92): > 100 µM (inactive)
- GI50 (A549): > 100 µM (inactive)
- GI50 (TK-10): > 100 µM (inactive)
- GI50 (OVCAR-5): > 100 µM (inactive)
- GI50 (NCI-H460): > 100 µM (inactive)

SMILES: CC(=O)C(CN1CCCCC1)C(c1ccccc1)c1c(O)c2ccccc2oc1=O (stereo not drawn)
- GI50 (SF-268): > 100 µM (inactive)
- GI50 (IGROV-1): > 100 µM (inactive)
- GI50 (HOP-62): > 100 µM (inactive)
- GI50 (A498): > 100 µM (inactive)
- GI50 (NCI-H226): > 100 µM (inactive)
- GI50 (CCRF-CEM): > 100 µM (inactive)
- GI50 (SNB-75): > 100 µM (inactive)
- GI50 (HCC 2998): > 100 µM (inactive)
- GI50 (SR): > 100 µM (inactive)
- GI50 (LOX IMVI): > 100 µM (inactive)
- GI50 (RXF 393): > 100 µM (inactive)
- GI50 (COLO 205): > 100 µM (inactive)
- GI50 (T47D): > 100 µM (inactive)
- GI50 (BT-549): > 100 µM (inactive)
- GI50 (HOP-92): 41 µM (inactive)
- GI50 (A549): > 100 µM (inactive)
- GI50 (TK-10): > 100 µM (inactive)
- GI50 (OVCAR-5): > 100 µM (inactive)
- GI50 (NCI-H460): > 100 µM (inactive)
